The test system of data set [1] is Streptococcus faecalis (Guze). Briefly: In vitro susceptibility of the S. faecalis Guze strain. The format is cell-based. The text has this:
^1 In vitro susceptibility of the S. faecalis Guze strain

In data set [2] the test system is Staphylococcus aureus 3055. Briefly: Standard agar-dilution test. The format is cell-based.
In data set [3] the test system is Group D Streptococcus 282. Briefly: Standard agar-dilution test. The class given is cell-based.
Data set [4] has as its system Streptococcus pyogenes C203. Briefly: Standard agar-dilution test. The format is cell-based.
Data set [5] deals with Streptococcus pneumoniae Park I. Briefly: Standard agar-dilution test. The class given is cell-based.
For data set [6], the system named is Viridans Streptococcus 9943. In words: Standard agar-dilution test. The class given is cell-based.
In data set [7] the test system is Neisseria gonorrhoeae 111076-4. Briefly: Standard agar-dilution test. The format is cell-based.
Data set [8] relates to Staphylococcus aureus 3055. Briefly: Standard broth-dilution test. The format is cell-based.
The test system of data set [9] is Group D Streptococcus 282. Briefly: Standard broth-dilution test. The class given is cell-based.
For data set [10], the system named is Streptococcus pyogenes C203. In words: Standard broth-dilution test. The format is cell-based.
For data set [11], the system named is Streptococcus pneumoniae Park I. Briefly: Standard broth-dilution test. The format is cell-based.
The subject of data set [12] is Viridans Streptococcus 9943. In words: Standard broth-dilution test. The format is cell-based.
Data set [13] relates to Staphylococcus aureus. In words: ICS agar-dilution, clinical isolates. The format is cell-based. The conditions noted are these: Staphylococcus aureus (10 isolates), MIC or MIC range of isolates.
The test system of data set [14] is Staphylococcus epidermidis. Briefly: ICS agar-dilution, clinical isolates. The class given is cell-based. Conditions: Staphylococcus epidermidis (12 isolates).
For data set [15], the system named is Actinomyces israelii. Briefly: Standard agar-dilution test, anaerobic bacteria. The class given is cell-based. The conditions noted are these: anaerobe.
Data set [16] deals with Clostridium perfringens. The format is cell-based. The conditions noted are these: anaerobe.
The subject of data set [17] is Clostridium septicum. In words: Standard agar-dilution test, anaerobic bacteria. The class given is cell-based. Conditions: anaerobe.
The test system of data set [18] is Eubacterium aerofaciens. Briefly: Standard agar-dilution test, anaerobic bacteria. Conditions: anaerobe. The class given is cell-based.
In data set [19] the test system is Peptococcus asaccharolyticus. Briefly: Standard agar-dilution test, anaerobic bacteria. The format is cell-based. The conditions noted are these: anaerobe.
For data set [20], the system named is Peptococcus prevoti. In words: Standard agar-dilution test, anaerobic bacteria. The class given is cell-based. Conditions: anaerobe.
In data set [21] the test system is Peptostreptococcus anaerobius. Briefly: Standard agar-dilution test, anaerobic bacteria. The format is cell-based. Conditions: anaerobe.
The test system of data set [22] is Peptostreptococcus intermedius. Briefly: Standard agar-dilution test, anaerobic bacteria. The class given is cell-based. Conditions: anaerobe.
Data set [23] relates to Propionibacterium acnes. Briefly: Standard agar-dilution test, anaerobic bacteria. The format is cell-based. Conditions: anaerobe.
The subject of data set [24] is Bacteroides fragilis. Briefly: Standard agar-dilution test, anaerobic bacteria. The format is cell-based. Conditions: anaerobe.
Data set [25] deals with Fusobacterium symbiosum. In words: Standard agar-dilution test, anaerobic bacteria. The class given is cell-based. Conditions: anaerobe.
Data set [26] has as its system Fusobacterium necrophorum. In words: Standard agar-dilution test, anaerobic bacteria. The class given is cell-based. The conditions noted are these: anaerobe.
Data set [27] concerns Staphylococcus aureus. In words: Agar dilution MIC (Table XV). The format is cell-based. An excerpt:
(§1) ^1 MIC = minimum inhibitory concentration (μg/ml), agar dilution
In general terms: In agar dilution, organisms are placed on agar that contains the substance at set levels.

In data set [28] the test system is Streptococcus pneumoniae. In words: Agar dilution MIC (Table XV). The class given is cell-based.
Description: as §1

The subject of data set [29] is Streptococcus pyogenes. In words: Agar dilution MIC (Table XV). The format is cell-based.
Description: as §1

The subject of data set [30] is Staphylococcus aureus. Briefly: Experimental bacterial infection in mice. The class given is in vivo. Conditions: subcutaneous administration, two doses. On the procedure: (§2) When two doses of test compound were administered to mice in illustrative infections, the activity observed as measured as an ED50 value [effective dose in mg/kg to protect fifty percent of the test animals: See Warren Wick, et al., J. Bacteriol. 81, 233-235 (1961)].

The test system of data set [31] is Streptococcus pneumoniae. In words: Experimental bacterial infection in mice. The class given is in vivo. Conditions: subcutaneous administration, two doses. On the procedure:
as §2

Data set [32] has as its system Streptococcus pyogenes. Briefly: Experimental bacterial infection in mice. The class given is in vivo. Conditions: two doses. On the procedure: as §2
For data set [33] the following is noted: Mouse.
The conditions of data set [34]: Rat, IV.
Data set [35] concerns Micrococcus luteus. Briefly: Paper-disc agar-diffusion bioassay. The conditions noted are these: Na salts.
The subject of data set [36] is Streptococcus faecalis (Guze). Briefly: Streptococcus faecalis descending rat pyelonephritis test. Conditions: rat dose 1.0 mg/kg × 7, subcutaneous.

Results on two compounds are retold here after patent USRE31396E, “A-21978 Antibiotics and process for their production” (priority 1982, dated 1983).

As usually defined, the MIC is the lowest concentration found to suppress growth. As usually defined, the ED50 is the dose at which the effect has come halfway, by size or by number of responders. A higher ED50 goes with a need for a large dose. What is called LD50 is the dose at which mortality reaches 50%. Higher therefore signals a less toxic substance.

Values after ≈ are worked out from the molar mass of the structure shown. Where two headings read alike, the source gives them in different places.

In the case of `CN[C@H](CC(C)C)C(=O)N[C@H]1C(=O)N[C@@H](CC(N)=O)C(=O)N[C@H]2C(=O)N[C@H]3C(=O)N[C@H](C(=O)N[C@H](C(=O)O)c4cc(O)cc(O)c4-c4cc3ccc4O)[C@H](O)c3ccc(c(Cl)c3)Oc3cc2cc(c3O[C@@H]2O[C@H](CO)[C@@H](O)[C@H](O)[C@H]2O[C@H]2C[C@](C)(N)[C@H](O)[C@H](C)O2)Oc2ccc(cc2Cl)[C@H]1O` [Vancomycin, reference compound], in data set [1] (Enterococcus faecalis, read-out: MIC), the MIC is 1 µg/mL (≈ 0.69 µM).
For `CCC(C)CCCCCCC(=O)NC(Cc1c[nH]c2ccccc12)C(=O)NC(CC(N)=O)C(=O)NC(CC(=O)O)C(=O)NC1C(=O)NCC(=O)NC(CCCN)C(=O)NC(CC(=O)O)C(=O)NC(C)C(=O)NC(CC(=O)O)C(=O)NCC(=O)NC(CO)C(=O)NC(C(C)CC(=O)O)C(=O)NC(CC(=O)c2ccccc2N)C(=O)OC1C` (stereo not shown) [Factor C1], the MIC stood at 0.5 µg/mL (≈ 0.306 µM) in data set [2]; 1.0 µg/mL (≈ 0.612 µM) in data set [3]; 0.13 µg/mL (≈ 0.0795 µM) in data set [4]; 0.13 µg/mL (≈ 0.0795 µM) in data set [5]; 0.5 µg/mL (≈ 0.306 µM) in [6]; 16.0 µg/mL (≈ 9.79 µM) in data set [7]. In addition, the MIC in data set [8] was 1.0 µg/mL (≈ 0.612 µM); in data set [9] it was 2.0 µg/mL (≈ 1.22 µM); in data set [10], 0.5 µg/mL (≈ 0.306 µM); in data set [11], 2.0 µg/mL (≈ 1.22 µM); in data set [12], 32.0 µg/mL (≈ 19.6 µM); in [15], 4 µg/mL (≈ 2.45 µM). Moreover, the MIC in data set [16] was found to be 16 µg/mL (≈ 9.79 µM); in data set [17], 4 µg/mL (≈ 2.45 µM); in data set [18] it was 16 µg/mL (≈ 9.79 µM); in [19], 4 µg/mL (≈ 2.45 µM); in data set [20], 2 µg/mL (≈ 1.22 µM); in data set [21], 2 µg/mL (≈ 1.22 µM). The MIC is 4 µg/mL (≈ 2.45 µM) in data set [22]; 8 µg/mL (≈ 4.89 µM) in [23]; > 128 µg/mL in data set [24]; > 128 µg/mL in data set [25]; 64 µg/mL (≈ 39.2 µM) in [26]; 0.5 µg/mL (≈ 0.306 µM) in data set [27]. Moreover, the MIC in [28] was found to be 0.13 µg/mL (≈ 0.0795 µM); in data set [29], 0.13 µg/mL (≈ 0.0795 µM); in data set [1] it was 1.0 µg/mL (≈ 0.612 µM). In addition, the “Minimum Inhibitory Concentration” value is 0.5 µg/mL in data set [13] and 0.13 to 0.25 µg/mL in [14]. Moreover, the ED50 in data set [30] was 0.22 mg/kg; in data set [31] it was 0.3 mg/kg; in data set [32] (oral administration), 93 mg/kg; in [32] (subcutaneous administration), 0.064 mg/kg. In addition, the results for the LD50 in data set [33] (IV), in data set [33] (SC) and in data set [34] were > 250 mg/kg, > 365 mg/kg and 479 ± 32 mg/kg, respectively. In addition, the “Bioassay (Micrococcus luteus)” value in data set [35] is 1663 units/mg. Besides, in [36], the “Percent of Rats with a 4-Log Titer Decrease” value is 50. The “Percent of Rats Cured” value in data set [36] (kidney counts less than 10^2 per g) worked out at 50.
